Measured values: publication PMC7413254 (Nature Communications, 2020)
Like-named read-outs stand apart in the source and are kept apart here.

Experiments:
PfCRT = experiment: Test of solutes as potential co-substrates for influx of VF-6 via PfCRT into the oocyte; format: cell-based, Plasmodium falciparum; set-up: key: X: Compounds that have been tested as potential co-substrates but are not required for influx of VF-6 via PfCRT into the oocyte; details: X = tested
PfCRT^3D7 = PfCRT^3D7 (Plasmodium falciparum, UniProt Q8IBZ9); experiment: cell-based; format: cell-based; details: total [3H]CQ transport; for inhibition at 500 µM: [test solute] = 0.5 mM; for inhibition at 1000 µM: [test solute] = 1 mM; for inhibition at 2000 µM: [test solute] = 2 mM
PfCRT^3D7, sequence (Q8IBZ9 59-398): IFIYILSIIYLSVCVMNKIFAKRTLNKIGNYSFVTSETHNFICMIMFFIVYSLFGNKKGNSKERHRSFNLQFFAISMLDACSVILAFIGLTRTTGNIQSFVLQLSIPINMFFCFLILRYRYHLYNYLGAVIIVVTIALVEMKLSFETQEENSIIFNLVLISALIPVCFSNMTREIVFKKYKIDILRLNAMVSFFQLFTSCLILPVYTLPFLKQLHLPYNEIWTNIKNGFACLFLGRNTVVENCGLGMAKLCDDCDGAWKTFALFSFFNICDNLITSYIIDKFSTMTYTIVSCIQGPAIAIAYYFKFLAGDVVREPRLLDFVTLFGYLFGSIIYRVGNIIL
Method in brief: (§1)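 ND96, pH 5.5, 1.5 h, 27.5 °C; uptake direction acidic outside → oocyte cytosol, mimicking efflux from digestive vacuole. Ice-cold wash stop, 10% SDS lysis, scintillation counting. Ten oocytes/treatment, ≥4 independent experiments.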

non-expressing oocytes = experiment: cells; format: cell-based, Xenopus laevis; details: Xenopus laevis, total [3H]CQ transport; for inhibition at 500 µM: [test solute] = 0.5 mM; for inhibition at 1000 µM: [test solute] = 1 mM; for inhibition at 2000 µM: [test solute] = 2 mM
Method in brief: as §1

PfCRT^Dd2 = PfCRT^Dd2 (Plasmodium falciparum, UniProt Q9N623, A220S/I356T/K76T/M74I/N326S/N75E/Q271E/R371I); experiment: [3H]CQ uptake into Xenopus oocytes, cis-inhibition by unlabelled solute; format: cell-based
PfCRT^Dd2, sequence (Q9N623 whole entry A220S/I356T/K76T/M74I/N326S/N75E/Q271E/R371I): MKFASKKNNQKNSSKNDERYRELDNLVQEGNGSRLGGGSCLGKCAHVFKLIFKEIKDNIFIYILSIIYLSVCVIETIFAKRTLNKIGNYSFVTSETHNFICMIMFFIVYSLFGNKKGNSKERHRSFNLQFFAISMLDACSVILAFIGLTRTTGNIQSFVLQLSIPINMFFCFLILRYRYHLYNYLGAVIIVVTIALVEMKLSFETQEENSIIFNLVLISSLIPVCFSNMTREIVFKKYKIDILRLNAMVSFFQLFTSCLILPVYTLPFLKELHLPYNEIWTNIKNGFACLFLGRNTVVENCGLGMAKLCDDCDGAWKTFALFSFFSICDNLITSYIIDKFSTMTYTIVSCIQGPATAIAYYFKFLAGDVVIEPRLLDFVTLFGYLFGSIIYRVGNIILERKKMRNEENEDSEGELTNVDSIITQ
Method in brief: as §1

PfCRT^Ecu1110 = PfCRT^Ecu1110 (Plasmodium falciparum, UniProt Q9N623, A220S/I356L/K76T/N326D); experiment: as above; format: cell-based
PfCRT^Ecu1110, sequence (Q9N623 whole entry A220S/I356L/K76T/N326D): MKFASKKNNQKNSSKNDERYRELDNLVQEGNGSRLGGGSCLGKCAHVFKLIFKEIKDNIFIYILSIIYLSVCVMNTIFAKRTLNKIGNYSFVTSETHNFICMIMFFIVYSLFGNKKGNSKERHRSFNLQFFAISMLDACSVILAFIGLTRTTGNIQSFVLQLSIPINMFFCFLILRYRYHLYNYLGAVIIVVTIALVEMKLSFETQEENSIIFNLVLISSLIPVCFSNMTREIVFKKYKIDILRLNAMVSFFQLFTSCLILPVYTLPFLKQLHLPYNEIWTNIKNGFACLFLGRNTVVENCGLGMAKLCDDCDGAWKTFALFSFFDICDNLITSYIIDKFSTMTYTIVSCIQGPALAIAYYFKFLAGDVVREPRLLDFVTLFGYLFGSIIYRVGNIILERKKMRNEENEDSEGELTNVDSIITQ
Method in brief: as §1

[1] = PfCRT3D7 oocytes, normalised to the oocyte type control, read-out: Uptake of [3H]CQ (% PfCRT3D7 control), cis-inhibition
[2] = mean ± SEM, SEM, read-out: Uptake of [3H]CQ (% PfCRTDd2 control), cis-inhibition, PfCRT3D7
[3] = Oocyte, mean ± SEM, SEM, read-out: Uptake of [3H]CQ (% PfCRTDd2 control), cis-inhibition, non-expressing oocytes
[4] = non-expressing oocytes, normalised to the oocyte type control, read-out: Uptake of [3H]CQ (% non-expressing oocyte control), cis-inhibition
[5] = read-out: PfCRT-mediated [3H]CQ transport, cis-inhibition (% PfCRTDd2 control)
[6] = read-out: Uptake of [3H]CQ (% PfCRTDd2 control), cis-inhibition
[7] = read-out: Uptake of [3H]CQ (% PfCRTDd2 control), cis-inhibition, PfCRTDd2, SEM
[8] = read-out: [3H]CQ transport (% PfCRTDd2 control), cis-inhibition, PfCRTDd2, SEM
[9] = read-out: PfCRT-mediated [3H]CQ transport, cis-inhibition (% PfCRTEcu1110 control)
[10] = read-out: Uptake of [3H]CQ (% PfCRTDd2 control), cis-inhibition, PfCRTEcu1110, SEM
[11] = read-out: Uptake of [3H]CQ (% PfCRTEcu1110 control), cis-inhibition

N=C(N)NCCC[C@H](N)C(=O)O [L-arginine]
Tested as potential co-substrate but not required for influx of VF-6 via PfCRT into the oocyte (PfCRT): X
inhibition at 500 µM (PfCRT^3D7; [1]): 100 ± 4.2%
inhibition at 1000 µM (PfCRT^3D7; [1]): 99 ± 5.7%
inhibition at 2000 µM (PfCRT^3D7; [1]): 100 ± 5.3%
inhibition at 500 µM (PfCRT^3D7; [2]): 2.4 ± 0.07%
inhibition at 1000 µM (PfCRT^3D7; [2]): 2.9 ± 0.05%
inhibition at 2000 µM (PfCRT^3D7; [2]): 3.3 ± 0.03%
inhibition at 500 µM (non-expressing oocytes; [3]): 2.5 ± 0.06%
inhibition at 1000 µM (non-expressing oocytes; [3]): 2.7 ± 0.06%
inhibition at 2000 µM (non-expressing oocytes; [3]): 2.1 ± 0.1%
inhibition at 500 µM (non-expressing oocytes; [4]): 99 ± 3.7%
inhibition at 1000 µM (non-expressing oocytes; [4]): 99 ± 2.6%
inhibition at 2000 µM (non-expressing oocytes; [4]): 98 ± 5.2%
inhibition at 500 µM (PfCRT^Dd2; [5]): 99 ± 3.2%
inhibition at 1000 µM (PfCRT^Dd2; [5]): 99 ± 2.6%
inhibition at 2000 µM (PfCRT^Dd2; [5]): 95 ± 2.4%
inhibition at 500 µM (PfCRT^Dd2; [6]): 101 ± 4.8%
inhibition at 1000 µM (PfCRT^Dd2; [6]): 101 ± 5.8%
inhibition at 500 µM (PfCRT^Dd2; [7]): 101 ± 4.8%
inhibition at 1000 µM (PfCRT^Dd2; [7]): 101 ± 5.8%
inhibition at 2000 µM (PfCRT^Dd2; [7]): 98 ± 3.5%
inhibition at 500 µM (PfCRT^Dd2; [8]): 99 ± 3.2%
inhibition at 1000 µM (PfCRT^Dd2; [8]): 99 ± 2.6%
inhibition at 500 µM (PfCRT^Ecu1110; [9]): 98 ± 2.5%
inhibition at 1000 µM (PfCRT^Ecu1110; [9]): 95 ± 3.5%
inhibition at 2000 µM (PfCRT^Ecu1110; [9]): 99 ± 1.6%
inhibition at 500 µM (PfCRT^Ecu1110; [10]): 33 ± 2.4%
inhibition at 1000 µM (PfCRT^Ecu1110; [10]): 32 ± 1%
inhibition at 2000 µM (PfCRT^Ecu1110; [10]): 33 ± 1.4%
inhibition at 500 µM (PfCRT^Ecu1110; [11]): 100 ± 4.3%
inhibition at 1000 µM (PfCRT^Ecu1110; [11]): 97 ± 6.2%
